Data from patent US8574563B2 (Bristol-Myers Squibb Company, priority 2006, dated 2013).
pEC50: −log10 of the molar value.

Test system: HCV 1b-377-neo replicon cells
Experiment: HCV replicon assay, HCV 1b-377-neo replicon cells (1b FRET)
Assay type: cell-based, Hepatitis C virus genotype 1b
Settings: Hepatitis C virus, HCV 1b-377-neo replicon cells; HCV 1b genotype; read-out: EC50 range against HCV 1b (Table 2, Range)
Method in brief: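 Compounds tested in HCV genotype 1b-377-neo replicon cells with a FRET read-out. Cells resistant to a reference NS5A inhibitor through a Y2065H NS5A mutation were run alongside wild-type cells.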

Row | Structure (SMILES) | pEC50
1 | COC(=O)N[C@@H](Cc1ccc(CN)cc1)C(=O)N1CCC[C@H]1c1ncc(-c2ccc(-c3ccc(-c4cnc([C@@H]5CCCN5C(=O)[C@@H](NC(=O)OC)C(C)C)[nH]4)cc3)cc2)[nH]1 [cj-103, methyl ((1S)-1-(4-(aminomethyl)benzyl)-2-((2S)-2-(5-(4′-(2-((2S)-1-((2S)-2-((methoxycarbonyl)amino)-3-methylbutanoyl)-2-pyrrolidinyl)-1H-imidazol-5-yl)-4-biphenylyl)-1H-imidazol-2-yl)-1-pyrrolidinyl)-2-oxoethyl)carbamate] | 9.00 to 12.00
2 | COC(=O)N[C@@H](Cc1ccc(OCc2ccccc2)cc1)C(=O)N1CCC[C@H]1c1ncc(-c2ccc(-c3ccc(-c4cnc([C@@H]5CCCN5C(=O)[C@@H](NC(=O)OC)C(C)C)[nH]4)cc3)cc2)[nH]1 [cj-104, methyl ((1S)-1-(((2S)-2-(5-(4′-(2-((2S)-1-(O-benzyl-N-(methoxycarbonyl)-L-tyrosyl)-2-pyrrolidinyl)-1H-imidazol-5-yl)-4-biphenylyl)-1H-imidazol-2-yl)-1-pyrrolidinyl)carbonyl)-2-methylpropyl)carbamate] | 9.00 to 12.00
3 | COC(=O)N[C@@H](Cc1ccc(OCc2ccccc2)cc1)C(=O)N1CCC[C@H]1c1ncc(-c2ccc(-c3ccc(-c4cnc([C@@H]5CCCN5C(=O)[C@@H](NC(=O)OC)[C@@H](C)OC)[nH]4)cc3)cc2)[nH]1 [cj-105, methyl ((1S,2R)-1-(((2S)-2-(5-(4′-(2-((2S)-1-(O-benzyl-N-(methoxycarbonyl)-L-tyrosyl)-2-pyrrolidinyl)-1H-imidazol-5-yl)-4-biphenylyl)-1H-imidazol-2-yl)-1-pyrrolidinyl)carbonyl)-2-methoxypropyl)carbamate] | 9.00 to 12.00
4 | CCN(CC)[C@@H](C(=O)N1CCC[C@H]1c1ncc(-c2ccc(-c3ccc(-c4cnc([C@@H]5CCCN5C(=O)[C@H](Cc5ccc(OCc6ccccc6)cc5)NC(=O)OC)[nH]4)cc3)cc2)[nH]1)c1ccccc1 [cj-106, methyl ((1S)-1-(4-(benzyloxy)benzyl)-2-((2S)-2-(5-(4′-(2-((2S)-1-((2R)-2-(diethylamino)-2-phenylacetyl)-2-pyrrolidinyl)-1H-imidazol-5-yl)-4-biphenylyl)-1H-imidazol-2-yl)-1-pyrrolidinyl)-2-oxoethyl)carbamate] | 9.00 to 12.00
5 | COC(=O)N[C@@H](C)C(=O)N1CCC[C@H]1c1ncc(-c2ccc(-c3ccc(-c4cnc([C@@H]5CCCN5C(=O)[C@H](Cc5ccc(OCc6ccccc6)cc5)NC(=O)OC)[nH]4)cc3)cc2)[nH]1 [cj-107, methyl ((1S)-1-(4-(benzyloxy)benzyl)-2-((2S)-2-(5-(4′-(2-((2S)-1-(N-(methoxycarbonyl)-L-alanyl)-2-pyrrolidinyl)-1H-imidazol-5-yl)-4-biphenylyl)-1H-imidazol-2-yl)-1-pyrrolidinyl)-2-oxoethyl)carbamate] | 9.00 to 12.00
6 | COC(=O)N[C@@H](C)C(=O)N1CCC[C@H]1c1ncc(-c2ccc(-c3ccc(-c4cnc([C@@H]5CCCN5C(=O)[C@@H]5CCC[C@H]5NC(=O)OC)[nH]4)cc3)cc2)[nH]1 [cj-108, methyl ((1R,2R)-2-(((2S)-2-(5-(4′-(2-((2S)-1-(N-(methoxycarbonyl)-L-alanyl)-2-pyrrolidinyl)-1H-imidazol-5-yl)-4-biphenylyl)-1H-imidazol-2-yl)-1-pyrrolidinyl)carbonyl)cyclopentyl)carbamate] | 9.00 to 12.00
7 | CCN(CC)[C@@H](C(=O)N1CCC[C@H]1c1ncc(-c2ccc(-c3ccc(-c4cnc([C@@H]5CCCN5C(=O)[C@@H]5CCC[C@H]5NC(=O)OC)[nH]4)cc3)cc2)[nH]1)c1ccccc1 [cj-109, methyl ((1R,2R)-2-(((2S)-2-(5-(4′-(2-((2S)-1-((2R)-2-(diethylamino)-2-phenylacetyl)-2-pyrrolidinyl)-1H-imidazol-5-yl)-4-biphenylyl)-1H-imidazol-2-yl)-1-pyrrolidinyl)carbonyl)cyclopentyl)carbamate] | 9.00 to 12.00
8 | COC(=O)N[C@@H](C(=O)N1CCC[C@H]1c1ncc(-c2ccc(-c3ccc(-c4cnc([C@@H]5CCCN5C(=O)[C@@H]5CCC[C@H]5NC(=O)OC)[nH]4)cc3)cc2)[nH]1)c1ccccc1 [cj-110, methyl ((1R)-2-((2S)-2-(5-(4′-(2-((2S)-1-(((1R,2R)-2-((methoxycarbonyl)amino)cyclopentyl)carbonyl)-2-pyrrolidinyl)-1H-imidazol-5-yl)-4-biphenylyl)-1H-imidazol-2-yl)-1-pyrrolidinyl)-2-oxo-1-phenylethyl)carbamate] | 9.00 to 12.00
9 | COC(=O)N[C@@H](Cc1ccc(O)cc1)C(=O)N1CCC[C@H]1c1ncc(-c2ccc(-c3ccc(-c4cnc([C@@H]5CCCN5C(=O)[C@@H](NC(=O)OC)C(C)C)[nH]4)cc3)cc2)[nH]1 [cj-111, methyl ((1S)-1-(4-hydroxybenzyl)-2-((2S)-2-(5-(4′-(2-((2S)-1-((2S)-2-((methoxycarbonyl)amino)-3-methylbutanoyl)-2-pyrrolidinyl)-1H-imidazol-5-yl)-4-biphenylyl)-1H-imidazol-2-yl)-1-pyrrolidinyl)-2-oxoethyl)carbamate] | 9.00 to 12.00
10 | CCN(CC)[C@@H](C(=O)N1CCC[C@H]1c1ncc(-c2ccc(-c3ccc(-c4cnc([C@@H]5CCCN5C(=O)[C@H](Cc5ccc(O)cc5)NC(=O)OC)[nH]4)cc3)cc2)[nH]1)c1ccccc1 [cj-112, methyl ((1S)-2-((2S)-2-(5-(4′-(2-((2S)-1-((2R)-2-(diethylamino)-2-phenylacetyl)-2-pyrrolidinyl)-1H-imidazol-5-yl)-4-biphenylyl)-1H-imidazol-2-yl)-1-pyrrolidinyl)-1-(4-hydroxybenzyl)-2-oxoethyl)carbamate] | 9.00 to 12.00
11 | COC(=O)N[C@@H](C)C(=O)N1CCC[C@H]1c1ncc(-c2ccc(-c3ccc(-c4cnc([C@@H]5CCCN5C(=O)[C@H](Cc5ccc(O)cc5)NC(=O)OC)[nH]4)cc3)cc2)[nH]1 [cj-113, methyl ((1S)-1-(4-hydroxybenzyl)-2-((2S)-2-(5-(4′-(2-((2S)-1-(N-(methoxycarbonyl)-L-alanyl)-2-pyrrolidinyl)-1H-imidazol-5-yl)-4-biphenylyl)-1H-imidazol-2-yl)-1-pyrrolidinyl)-2-oxoethyl)carbamate] | 9.00 to 12.00
12 | COC(=O)N[C@@H](Cc1ccc(CNC(C)=O)cc1)C(=O)N1CCC[C@H]1c1ncc(-c2ccc(-c3ccc(-c4cnc([C@@H]5CCCN5C(=O)[C@@H](NC(=O)OC)C(C)C)[nH]4)cc3)cc2)[nH]1 [cj-114, methyl ((1S)-1-(4-(acetamidomethyl)benzyl)-2-((2S)-2-(5-(4′-(2-((2S)-1-((2S)-2-((methoxycarbonyl)amino)-3-methylbutanoyl)-2-pyrrolidinyl)-1H-imidazol-5-yl)-4-biphenylyl)-1H-imidazol-2-yl)-1-pyrrolidinyl)-2-oxoethyl)carbamate] | 9.00 to 12.00
13 | CCNC(=O)NCc1ccc(C[C@H](NC(=O)OC)C(=O)N2CCC[C@H]2c2ncc(-c3ccc(-c4ccc(-c5cnc([C@@H]6CCCN6C(=O)[C@@H](NC(=O)OC)C(C)C)[nH]5)cc4)cc3)[nH]2)cc1 [cj-115, methyl ((1S)-1-(4-(((ethylcarbamoyl)amino)methyl)benzyl)-2-((2S)-2-(5-(4′-(2-((2S)-1-((2S)-2-((methoxycarbonyl)amino)-3-methylbutanoyl)-2-pyrrolidinyl)-1H-imidazol-5-yl)-4-biphenylyl)-1H-imidazol-2-yl)-1-pyrrolidinyl)-2-oxoethyl)carbamate] | 9.00 to 12.00
14 | CCN(CC)[C@@H](C(=O)N1CCC[C@H]1c1ncc(-c2ccc(-c3ccc(-c4cnc([C@@H]5CCCN5C(=O)[C@H]5CCC[C@@H]5NC(=O)OC)[nH]4)cc3)cc2)[nH]1)c1ccccc1 [cj-116, methyl ((1S,2S)-2-(((2S)-2-(5-(4′-(2-((2S)-1-((2R)-2-(diethylamino)-2-phenylacetyl)-2-pyrrolidinyl)-1H-imidazol-5-yl)-4-biphenylyl)-1H-imidazol-2-yl)-1-pyrrolidinyl)carbonyl)cyclopentyl)carbamate] | 9.00 to 12.00
15 | COC(=O)N[C@H]1CCC[C@@H]1C(=O)N1CCC[C@H]1c1ncc(-c2ccc(-c3ccc(-c4cnc([C@@H]5CCCN5C(=O)[C@H](NC(=O)OC)c5ccccc5)[nH]4)cc3)cc2)[nH]1 [cj-117, methyl ((1R)-2-((2S)-2-(5-(4′-(2-((2S)-1-(((1S,2S)-2-((methoxycarbonyl)amino)cyclopentyl)carbonyl)-2-pyrrolidinyl)-1H-imidazol-5-yl)-4-biphenylyl)-1H-imidazol-2-yl)-1-pyrrolidinyl)-2-oxo-1-phenylethyl)carbamate] | 9.00 to 12.00
16 | COC(=O)N[C@@H](C)C(=O)N1CCC[C@H]1c1ncc(-c2ccc(-c3ccc(-c4cnc([C@@H]5CCCN5C(=O)[C@H]5CCC[C@@H]5NC(=O)OC)[nH]4)cc3)cc2)[nH]1 [cj-118, methyl ((1S,2S)-2-(((2S)-2-(5-(4′-(2-((2S)-1-(N-(methoxycarbonyl)-L-alanyl)-2-pyrrolidinyl)-1H-imidazol-5-yl)-4-biphenylyl)-1H-imidazol-2-yl)-1-pyrrolidinyl)carbonyl)cyclopentyl)carbamate] | 9.00 to 12.00
17 | COCC[C@H](NC(=O)OC)C(=O)N1CCC[C@H]1c1ncc(-c2ccc(-c3ccc(-c4cnc([C@@H]5CCCN5C(=O)[C@@H](NC(=O)OC)C(C)C)[nH]4)cc3)cc2)[nH]1 [cj-119, methyl ((1S)-1-(((2S)-2-(5-(4′-(2-((2S)-1-(N-(methoxycarbonyl)-O-methyl-L-homoseryl)-2-pyrrolidinyl)-1H-imidazol-5-yl)-4-biphenylyl)-1H-imidazol-2-yl)-1-pyrrolidinyl)carbonyl)-2-methylpropyl)carbamate] | 9.00 to 12.00
18 | COCC[C@H](NC(=O)OC)C(=O)N1CCC[C@H]1c1ncc(-c2ccc(-c3ccc(-c4cnc([C@@H]5CCCN5C(=O)[C@H](C)NC(=O)OC)[nH]4)cc3)cc2)[nH]1 [cj-120, methyl ((1S)-3-methoxy-1-(((2S)-2-(5-(4′-(2-((2S)-1-(N-(methoxycarbonyl)-L-alanyl)-2-pyrrolidinyl)-1H-imidazol-5-yl)-4-biphenylyl)-1H-imidazol-2-yl)-1-pyrrolidinyl)carbonyl)propyl)carbamate] | 9.00 to 12.00
